Assay results from US9751875B2, “Quinine compounds, and optical isomers, preparation method and medical use thereof” (BEIJING FSWELCOME TECHNOLOGY DEVELOPMENT CO., LTD., priority 2013, dated 2017).
Where two headings read alike, the source gives them in different places.

Columns and labels:
[1] = tested on: tracheal smooth muscle from guinea pigs (contraction induced by 3 × 10^−6 mol/L of CCh); assay: Antagonism in vitro of contraction of isolated tracheal smooth muscle from guinea pigs induced by carbachol (CCh); format: cell-based, guinea pig
[2] = tested on: m1, m2 and m3 subtypes of M receptor; assay: Competitive [3H]-QNB binding on membranes of CHO cells transfected with m1, m2, m3; selectivity on subtypes of M receptor; details: ratio of Ki, n = 6
[3] = tested on: bronchus in guinea pigs (contractile response induced by Mch); assay: Antagonism of contractile response of bronchus in guinea pigs induced by methacholine (Mch); airway resistance and pulmonary dynamic compliance; format: in vivo, guinea pig; details: Mch 10 μg/kg iv after 30 min; for Cdyn(ml/cm H2O) / Raw (cm H2O/ml/s): Mean ± S.E.M
From the text: Determination of tidal volume, airway flow rate, and transpulmonary pressure: 1.5 g/kg of urethane was intraperitoneally injected to narcotize the guinea pig. The guinea pig was fixed supinely and treated with tracheal intubation, and the external jugular vein was separated and an indwelling needle was inserted; the guinea pig was enclosed into a body plethysmograph, a blunt needle for intubation into thoracic cavity was inserted between ribs 4˜5 of the prothorax of the guinea pig, and the intrathoracic pressure could be measured (with a negative value of a water column of a water manometer and a fluctuation with the breath of the guinea pig as marks). After stabilization, the values of the tidal volume, airway flow rate and transpulmonary pressure of the guinea pig prior to administration of Mch were recorded by a MedLab biological signal collection and processing system as base values. 10 μg/kg body weight of Mch was intravenously injected. The changes of the airway flow rate, tidal volume and transpulmonary pressure of the guinea pig within 5 minutes were observed. Calculation of Raw and Cdyn: the changes of the increased percentage of Raw value and the decreased percentage of Cdyn after […] of Mch were calculated.
Calculation formulas of Raw and Cdyn were respectively: […]
Dose-effect relationship: For each of the example compounds, 27 guinea pigs were randomly divided into […]: a solvent control group with […], a group with 1 μg/kg of the example compounds 4, 10, 14, and 26, a group with 3 μg/kg of the example compounds 4, 10, 14, and 26 and a group with 10 μg/kg of the example compounds 4, 10, 14, and 26; after 30 min from the dropping of the above concentration of drugs in the airway, 10 μg/kg body weight of Mch was intravenously injected for excitation, and airway resistance (Raw) and pulmonary dynamic compliance (Cdyn) within 5 min were determined. […]

[4] = tested on: tracheal smooth muscle from guinea pigs (contraction induced by 3 × 10^−6 mol/L of CCh); assay: Antagonism in vitro of contraction of isolated tracheal smooth muscle from guinea pigs induced by carbachol (CCh); format: cell-based, guinea pig; remark: listed apart in the source
[5] = read-out: IC50 (μM), antagonism in vitro against the contraction of the tracheal smooth muscle induced by CCh; 3 × 10^−6 mol/L of CCh; cumulative dosing

OC(CO[C@@H]1C[N+]2(CCCOc3ccccc3)CCC1CC2)(c1ccccc1)C1CCCC1.[Br-] (stereo partly drawn) [Example 4, (2R,3R)-3-[(2-cyclopentyl-2-hydroxyl-2-phenyl)ethoxyl]-1-(3-phenoxypropyl)-1-azabicyclo[2,2,2]octane bromide]
IC50 [1, 5]: 0.0278 µM
Selectivity m1/m2, Mx/My = Ki(y)/Ki(x) [2]: 30.2
Selectivity m1/m3, Mx/My = Ki(y)/Ki(x) [2]: 0.332
Selectivity m2/m3, Mx/My = Ki(y)/Ki(x) [2]: 0.011
inhibition ratio against the decrease of pulmonary dynamic compliance ([3]; 1 μg/kg dropped in the airway): 11.2%
inhibition ratio against the increase of airway resistance ([3]; 1 μg/kg dropped in the airway): 64.2%
Cdyn(ml/cm H2O) ([3]; 1 μg/kg dropped in the airway): 0.105 ± 0.012 ml/cm H2O
Raw (cm H2O/ml/s) ([3]; 1 μg/kg dropped in the airway): 0.733 ± 0.088 cm H2O/ml/s
inhibition ratio against the decrease of pulmonary dynamic compliance ([3]; 3 μg/kg dropped in the airway): 46.6%
inhibition ratio against the increase of airway resistance ([3]; 3 μg/kg dropped in the airway): 86.1%
Cdyn(ml/cm H2O) ([3]; 3 μg/kg dropped in the airway): 0.137 ± 0.015 ml/cm H2O
Raw (cm H2O/ml/s) ([3]; 3 μg/kg dropped in the airway): 0.552 ± 0.060 cm H2O/ml/s
inhibition ratio against the decrease of pulmonary dynamic compliance ([3]; 10 μg/kg dropped in the airway): 50.0%
inhibition ratio against the increase of airway resistance ([3]; 10 μg/kg dropped in the airway): 90.8%
Cdyn(ml/cm H2O) ([3]; 10 μg/kg dropped in the airway): 0.196 ± 0.017 ml/cm H2O
Raw (cm H2O/ml/s) ([3]; 10 μg/kg dropped in the airway): 0.513 ± 0.071 cm H2O/ml/s
Onset time [4]: 6.37 min
Time for eliminating inhibition effect (min) [4]: more than 300 min

OC(CO[C@H]1C[N+]2(CCCOc3ccccc3)CCC1CC2)(c1ccccc1)C1CCC1.[Br-] (stereo partly drawn) [Example 14, (2S,3S)-3-[(2-cyclobutyl-2-hydroxyl-2-phenyl)ethoxyl]-1-(3-phenoxypropyl)-1-azabicyclo[2,2,2]octane bromide]
IC50 [1, 5]: 4.87 µM
Selectivity m1/m2, Mx/My = Ki(y)/Ki(x) [2]: 25.6
Selectivity m1/m3, Mx/My = Ki(y)/Ki(x) [2]: 0.205
Selectivity m2/m3, Mx/My = Ki(y)/Ki(x) [2]: 0.008
inhibition ratio against the decrease of pulmonary dynamic compliance ([3]; 1 μg/kg dropped in the airway): 11.0%
inhibition ratio against the increase of airway resistance ([3]; 1 μg/kg dropped in the airway): 63.5%
Cdyn(ml/cm H2O) ([3]; 1 μg/kg dropped in the airway): 0.101 ± 0.010 ml/cm H2O
Raw (cm H2O/ml/s) ([3]; 1 μg/kg dropped in the airway): 0.719 ± 0.082 cm H2O/ml/s
inhibition ratio against the decrease of pulmonary dynamic compliance ([3]; 3 μg/kg dropped in the airway): 46.1%
inhibition ratio against the increase of airway resistance ([3]; 3 μg/kg dropped in the airway): 85.4%
Cdyn(ml/cm H2O) ([3]; 3 μg/kg dropped in the airway): 0.141 ± 0.014 ml/cm H2O
Raw (cm H2O/ml/s) ([3]; 3 μg/kg dropped in the airway): 0.560 ± 0.062 cm H2O/ml/s
inhibition ratio against the decrease of pulmonary dynamic compliance ([3]; 10 μg/kg dropped in the airway): 49.5%
inhibition ratio against the increase of airway resistance ([3]; 10 μg/kg dropped in the airway): 90.5%
Cdyn(ml/cm H2O) ([3]; 10 μg/kg dropped in the airway): 0.207 ± 0.018 ml/cm H2O
Raw (cm H2O/ml/s) ([3]; 10 μg/kg dropped in the airway): 0.504 ± 0.073 cm H2O/ml/s
Onset time [4]: 6.34 min
Time for eliminating inhibition effect (min) [4]: more than 300 min

(2R,3S),(2S,3R)-3-[(2-cyclopentyl-2-hydroxyl-2-phenyl)ethoxyl]-1-(3-phenoxypropyl)-1-azabicyclo[2,2,2]octane bromide [Example 5]
IC50 ([1]; 3 × 10^−6 mol/L of CCh; cumulative dosing; read-out: IC50 (μM), antagonism in vitro against the contraction of the tracheal smooth muscle induced by CCh): 1.03 µM
Selectivity m1/m2, Mx/My = Ki(y)/Ki(x) [2]: 45.6
Selectivity m1/m3, Mx/My = Ki(y)/Ki(x) [2]: 0.502
Selectivity m2/m3, Mx/My = Ki(y)/Ki(x) [2]: 0.011
Onset time [4]: 7.01 min
Time for eliminating inhibition effect (min) [4]: more than 300 min
